Reference: patent publication US20230404989A1, “GRK2 INHIBITION BY PAROXETINE AMELIORATES OSTEOARTHRITIS” (THE PENN STATE RESEARCH FOUNDATION, priority 2020, published 2023)
Entries after “also recorded” stand apart in the source; their conditions may differ.

What was measured:
DMM mice = experiment: DMM drug treatment study: OARSI scoring and histomorphometry of knee cartilage; type: in vivo, mouse; details: for cartilage degeneration (Safranin-O and Fast Green histology) / chondro-protective and matrix-regenerative effects (overall) / total number of chondrocytes / uncalcified cartilage area: daily ip week 8 to 12; for OARSI score / number of matrix producing chondrocytes: daily ip week 8 to 12, versus vehicle
Procedure: Drug treatment studies: In twelve-week old male wild type C57BL/6 mice that received DMM surgeries, vehicle (PBS), paroxetine (5 mg/kg/day), fluoxetine (5 mg/kg/day), gallein (10 mg/kg/day) or indomethacin (2.5 mg/kg/day) were administered daily by ip injection. Drug treatment was initiated 8 weeks following DMM to determine the role of GRK2 signaling in the progression of OA.
Twelve-week-old male mice were administered DMM surgery to the right knee and sham surgery to the left knee as described (S. S. Glasson, Osteoarthritis. Cartilage. 15, 1061-1069 (2007)). Briefly, mice were anesthetized via intraperitoneal injection of ketamine (60 mg/kg) and xylazine (4 mg/kg), and a 5-mm-long incision was made on the medial side of the knee. Under a dissecting microscope, an incision was made along the medial side of the patellar tendon, opening the joint space. Using a #11 scalpel, the medial meniscotibial ligament (MMTL) was transected, enabling the medial meniscus to move freely. A similar skin incision was made in sham knees, but the joint structure was not disturbed. For the sham group, both right and left knees had sham surgeries. After surgery, 4-0 silk sutures were used to close the incision using an interrupted pattern. Mice were provided analgesia via intraperitoneal injection of buprenorphine (0.5 mg/kg) every 12 hours for 72 hours, and sutures were removed after 7 days. Mice were sacrificed, at the indicated time points, by anesthesia followed with whole animal perfusion using 10% NBF, knees were harvested and fixed for 7 days in 10% NBF, decalcified for 7 days in 10% w/v EDTA, embedded in paraffin, and 10-μm sections were cut and mounted for Safranin-O/Fast Green or IF staining.
Semi-quantitative histopathologic grading was performed using a derivative of the Chambers' scoring system that has been established by the OARSI histopathology initiative as the standard method for grading of mouse cartilage degeneration. Based on this system, cartilage grading was carried out using Safranin-O/Fast Green-stained midsagittal sections. Three sections from representative levels (50 μm apart) of the medial compartment of the joint were selected for each sample and, which were evaluated in a randomized, blinded manner by 3 laboratory members. The 3 scores were averaged to calculate the section score, and the sample score was then calculated by averaging the scores obtained from the three levels. Grading was performed using the following scale: 0=normal cartilage, 0.5=loss of proteoglycan stain without cartilage damage, 1=mild superficial fibrillation, 2=fibrillation and/or clefting extending below the superficial zone, 3=mild (<25%) loss of cartilage, 4=moderate (25-50%) loss of cartilage, 5=severe (50-75%) loss of uncalcified cartilage, and 6=eburnation with >75% loss of cartilage. Grading was performed by three blinded observers (F.K., M.J.Z., and E.R.S.). Observer agreement was evaluated in pairs via calculation of a weighted kappa coefficient, using Fleiss-Cohen weights, as we have described. The F.K. versus M.J.Z. coefficient was 0.92, the F.K. versus E.R.S. coefficient was 0.94, and the M.J.Z. versus E.R.S coefficient was 0.89, all indicative of strong agreement between the observers.
Using Safranin-O/Fast Green-stained sections, the OsteoMetrics system was used to quantify the above parameters on three sections from representative levels (50 μm apart) of the medial compartment of the joint for each sample. Live images of the center of the knee joint were collected through an Olympus microscope (10× objective) outfitted with a camera, a stylus was used to trace the regions of interest (ROIs). A blinded observer quantified uncalcified articular cartilage area, total chondrocyte number and matrix-producing chondrocyte number using the built-in area calculation algorithms and quantification functions of the OsteoMeasure® system. […]

human OA cartilage = experiment: Ex vivo cultured human OA osteochondral plugs: cAMP assay; type: cell-based; details: paroxetine 5 μM or gallein 10 μM, 48 hrs, versus vehicle
From the text: An Institutional Review Board-approved protocol was executed to collect discarded de-identified cartilage from patients. For the experiment described in FIG. 3A, we obtained acutely injured human cartilage (from patients undergoing arthroscopic surgery 4 weeks following meniscal injury, N=6) and OA cartilage (from patients undergoing arthroplasty, N=6). Normal controls were obtained from amputees' knees (N=6). Cartilage was fixed in formalin then processed and embedded in paraffin, 5-μm sections were used for immunofluorescence (IF) staining. For the experiment described in FIG. 7, OA osteochondral tissue was collected from patients undergoing total knee arthroplasty. Osteochondral plugs (8-mm diameter) were obtained and bone was flushed with saline solution to remove all bone marrow and blood cells. […] Gas activity was measured by quantifying cAMP content in cartilage pooled from 3 mice. […] Frozen cartilage was pulverized using 500 μL lysis buffer as we have previously described (H. K. Le Bleu, Anal Biochem, 518, 134-138 (2017)). cAMP content was quantified using the Cyclic AMP XP Assay kit (Cell Signaling, #4339) and following manufacturer's protocol, with 0.5 mM IBMX added to the lysis buffer to prevent phosphodiesterase mediated cAMP degradation during the extraction process. cAMP levels in different groups were normalized to that of sham mice or the vehicle treated human cartilage.

| SMILES | cartilage degeneration (Safranin-O and Fast Green histology) (DMM mice) | chondro-protective and matrix-regenerative effects (overall) (DMM mice) | total number of chondrocytes (DMM mice) | uncalcified cartilage area (DMM mice) | OARSI score (DMM mice) | number of matrix producing chondrocytes (DMM mice) | cAMP production (human OA cartilage) |
| --- | --- | --- | --- | --- | --- | --- | --- |
| O=C1OC2(c3ccccc31)c1ccc(O)c(O)c1Oc1c2ccc(O)c1O [gallein] | reduced | exert both a chondro-protective and a matrix-regenerative effects; also recorded: equivalent to that of paroxetine | preserved | preserved | lower | higher number | significant increase |
| Fc1ccc([C@@H]2CCNC[C@H]2COc2ccc3c(c2)OCO3)cc1 [paroxetine] | reduced | exert both a chondro-protective and a matrix-regenerative effects | preserved | preserved | lower | higher number | significant increase |
